According to patent US5380732A, “Pesticidal compounds” (priority 1986, dated 1995):

Columns and labels:
Assay type in all cases: in vivo
Musca domestica = test: spray onto 20 female Musca, mortality after 2 days (Example C); conditions: 25° C.
Method: (§1) The compounds of the invention were tested by dissolving them in acetone (5%) and then diluting in water/`Synperonic` (94.5%/0.5%) to give a water emulsion. ("Synperonic" is a R.T.M. of I.C.I. plc and is nonylphenol ethoxylate in aqueous solution to give 27%; available from B.D.H., Poole, Dorset, England). The solution was then used to treat the following insects.
20 female Musca were contained in a cardboard cylinder with gauze over either end. Solution containing the compound was sprayed onto the insects so enclosed and mortality assessed after 2 days at 25° C.

Plutella xylostella [1] = test: fourth instar Plutella larvae sprayed and added to sprayed chinese cabbage leaf (Example C); conditions: 2 days, 25° C.
Method: as §1
7 Fourth instar Plutella larvae were sprayea with the solution containing the compound and added to a chinese cabbage leaf which had been similarly sprayed and left to dry. Mortality was assessed after 2 days at 25° C.

Tetranychus urticae = test: leaf discs of infested french bean sprayed (Example C); conditions: 2 days, 25° C.
Method: as §1
Leaf discs of infested french bean were sprayed with the solution containing the compound. Mortality was assessed after 2 days at 25° C.

Spodoptera littoralis = test: injection into fifth instar Spodoptera littoralis larvae (Example D); conditions: 5% solution in DMSO/acetone (50:50), 1.0 ul injected, 2 days, 25° C.
Method: The compounds of the invention were also tested by dissolving them in DMSO/acetone (50:50) to give a 5% solution, 1.0 ul of which was injected into fifth instar Spodoptera littoralis larvae. Mortality was assessed after 2 days at 25° C.

Myzus persicae = test: adult Myzus on chinese cabbage leaf disc sprayed (Example C); conditions: 2 days, 25° C.
Method: as §1
10 adult Myzus were placed on a leaf disc of chinese cabbage. 24 hours later the disc was sprayed with the solution containing the compound. Mortality was assessed after 2 days at 25° C.

Sitophilus granarius = test: adults on treated wheat, mortality after 6 days, Sitophilus (Example C); conditions: 25° C.
Method: as §1
(§2) 20 adult Sitophilus and Tribolium were added to 10 g wheat which had been previously treated with 2 ml of the solution containing the compound. Mortality was assessed after 6 days at 25° C.

Plutella xylostella [2] = test: discs of chinese cabbage infested with second instar Plutella larvae sprayed (Example C); conditions: at 200 ppm, 2 days, 25° C.
Method: as §1
or Discs of chinese cabbage infested with c8 second instar Plutella larvae were sprayed with the solution containing the compound. Mortality was assessed after 2 days at 25° C.

Blatella germanica = test: activity against Blatella germanica with piperonyl butoxide; conditions: at up to 10 μg per insect (+piperonyl butoxide)
Tribolium castaneum = test: adults on treated wheat, mortality after 6 days, Tribolium (Example C); conditions: at 1000 ppm, 25° C.
Method: as §1, §2

M. domestica = test: track-spray of acetone-water solution, M. domestica (Example A); conditions: acetone-water (5:95)
Method: (§3) The compound of Example 1 was administered in acetone-water (5:95) by track-spray to a range of insect and acarine species, giving the following results.

S. granarius = test: track-spray of acetone-water solution, S. granarius (Example A); conditions: acetone-water (5:95)
Method: as §3

T. castaneum = test: track-spray of acetone-water solution, T. castaneum (Example A); conditions: acetone-water (5:95)
Method: as §3

A. aegypti (larvae) = test: track-spray of acetone-water solution, A. aegypti larvae (Example A); conditions: acetone-water (5:95)
Method: as §3

C. quinquefasciatus = test: track-spray of acetone-water solution, C. quinquefasciatus (Example A); conditions: acetone-water (5:95)
Method: as §3

Compound: CC(C=CCCCCCCCOc1cccc(C(F)(F)F)n1)=CC(=O)NCC(C)C [Example 8]
- active (mortality) (Musca domestica; at 1000 ppm): active
- active (mortality) (Plutella xylostella [1]; at 200 ppm): active
- active (mortality) (Tetranychus urticae; at 200 ppm): active
- active (mortality) (Spodoptera littoralis): active

Compound: (2E/Z,4E) N-Isobutyl 3-methyl-12-(4-chloro-2'-pyrimidyloxy) -dodeca-2,4-dienamide and (2E/Z,4E) N-Isobutyl 3-methyl-12-(2-chloro-4'-pyrimidyloxy) -dodeca-2,4-dienamide [Example 33]
- active (mortality) (Myzus persicae; at 1000 ppm): active

Compound: CC(C)CNC(=O)/C=C/C=C/CCCCCCCOc1cccc(C(F)(F)F)n1 [Example 3, (2E,4E) N-isobutyl 12-(6trifluoromethyl-2'-pyridyloxy) dodeca-2,4-dienamide]
- active (mortality) (Musca domestica; at 200 ppm): active
- active (mortality) (Tetranychus urticae; at 1000 ppm): active

Compound: CC(C)CNC(=O)/C=C/C=C/CCCCCCCOc1cc(C(F)(F)F)cc(C(F)(F)F)n1 [Example 19, (2E,4E) N-isobutyl 12-(4',6'-bistrifluoromethyl-2'-pyridyloxy) -dodeca-2,4-dienamide]
- active (mortality) (Musca domestica; at 200 ppm): active
- active (mortality) (Sitophilus granarius): active
- active (mortality) (Plutella xylostella [2]): active

Compound: CC(C=CCCCCCCCOc1cc(C(F)(F)F)cc(Cl)n1)=CC(=O)NCC(C)C [Example 11]
- active (mortality) (Musca domestica; at 1000 ppm): active
- active (mortality) (Plutella xylostella [1]; at 1000 ppm): active
- active (mortality) (Tetranychus urticae; at 1000 ppm): active
- active (mortality) (Spodoptera littoralis): active

Compound: CC(C=CCCCCCCCOc1cccnc1Cl)=CC(=O)NC(C)C(C)C (stereo not drawn) [Example 27]
- active (mortality) (Tetranychus urticae; at 1000 ppm): active

Compound: CC(C=CCCCCCCCOc1ccc(Cl)cn1)=CC(=O)NCC(C)C [Example 18]
- active (mortality) (Musca domestica; at 1000 ppm): active
- active (mortality) (Plutella xylostella [1]; at 1000 ppm): active
- active (mortality) (Myzus persicae; at 1000 ppm): active
- active (mortality) (Tetranychus urticae; at 1000 ppm): active

Compound: CC(C=CCCCCCCCOc1cccnc1Br)=CC(=O)NCC(C)C [Example 29]
- active (mortality) (Tetranychus urticae; at 1000 ppm): active
- active (mortality) (Spodoptera littoralis): active

Compound: (2E,4E) N-1-Methylpropyl 12-(4'-chloro-2-pyrimidyloxy) dodeca-2,4-dienamide and (2E,4E) N-1-Methylpropyl 12-(2-chloro-4'-pyrimidyloxy) -dodeca-2,4-dienamide [Example 34]
- active (mortality) (Tetranychus urticae; at 1000 ppm): active

Compound: CC(C)CNC(=O)C=CC=CCCCCCCCOc1cccnc1Br [Example 28]
- active (mortality) (Tetranychus urticae; at 1000 ppm): active

Compound: CC(C)CNC(=O)C=CC=CCCCCCOc1cccc(Cl)n1 [Example 14]
- active (mortality) (Myzus persicae; at 1000 ppm): active

Compound: CC(/C=C/CCCCCCCOc1ncc(C(F)(F)F)cc1Cl)=C(/F)C(=O)NCC(C)C [Example 39, (2Z,4E)N-Isobutyl 2-fluoro-3-methyl-12-(3-chloro-5-trifluoromethyl-2-pyridyloxy) dodeca-2,4-dienamide]
- active (Blatella germanica): active

Compound: CC(C)CNC(=O)C=CC=CCCCCCCCOc1ccc(Cl)cn1 [Example 17]
- active (mortality) (Musca domestica; at 200 ppm): active
- active (mortality) (Tribolium castaneum): active
- active (mortality) (Plutella xylostella [1]; at 200 ppm): active
- active (mortality) (Tetranychus urticae; at 1000 ppm): active

Compound: CCC(C)NC(=O)/C=C/C=C/CCCCCCCOc1ccncc1 (stereo not drawn) [Example 30, (2E,4E) -N-(1-methylpropyl) 12-(4'-pyridyloxy)dodeca-2,4-dienamide]
- active (mortality) (Myzus persicae; at 1000 ppm): active

Compound: CC(C)CNC(=O)C=CC=CCCCCCCCOc1ccc(C(F)(F)F)cn1 [Example 6]
- active (mortality) (Musca domestica; at 1000 ppm): active

Compound: CC(C=CCCCCCCCOc1cc(C(F)(F)F)cc(C(F)(F)F)n1)=CC(=O)NCC(C)C [Example 23]
- active (mortality) (Musca domestica; at 1000 ppm): active
- active (mortality) (Tetranychus urticae; at 1000 ppm): active

Compound: CC(C)CNC(=O)C=CC=CCCCCCCCOc1cccc(Cl)n1 [Example 1, N-Isobutyl 12-(6'-chloro-2'-pyridyloxy)dodeca-2,4-dienamide]
- LD50 (M. domestica): about 200 ppm
- LD50 (S. granarius): > 1000 ppm
- LD50 (T. castaneum): > 1000 ppm
- LD50 (A. aegypti (larvae)): > 1000 ppm
- LD50 (C. quinquefasciatus): > 1000 ppm
- active (mortality) (Musca domestica; at 200 ppm): active
- active (mortality) (Plutella xylostella [1]; at 1000 ppm): active
- active (mortality) (Myzus persicae; at 200 ppm): active
- active (mortality) (Tetranychus urticae; at 1000 ppm): active
